Reference: patent US20220040092A1, “Ready to use injectable formulations of Micafungin Sodium” (RK Pharma Solutions LLC, priority 2020, published 2022)
Where “and” joins values, the source holds several entries; their conditions need not be identical. Equal values may be shown once. Read-outs that look alike come from different tables or passages of the source. Starred links: 1 amine or outer side, 2 acyl side, 3 side chain; linkers in the order of their positions; H or OH if unused. Positions of bridges follow the written chain, without caps; N, C: chain ends. Non-standard residues stand in square brackets, D forms with d. Residues, ends and D or L forms follow the SMILES beside them. *: point of attachment. hTyr(3S-OH,4S-OH,3'-OSO3H) = N[C@H](C(=O)O)[C@H](O)[C@@H](O)c1ccc(O)c(OS(=O)(=O)O)c1; Orn(4R-OH,5R-OH) = O=C([C@H](C[C@@H](O)[C@@H](O)N[*:3])N[*:1])[*:2]; Pro(3S-OH,4S-Me) = C[C@H]1CN[C@H](C(=O)O)[C@H]1O; X1 = CCCCCOc1ccc(-c2cc(-c3ccc(C(=O)*)cc3)no2)cc1; Gln(3R-OH) = NC(=O)C[C@@H](O)[C@H](N)C(=O)O; Hyp = O=C(O)[C@@H]1C[C@@H](O)CN1

Tests used:
[1] = cited from earlier work
[2] = Storage stability of ready-to-use micafungin sodium solution in vials at 2-8° C. (purity and impurities by RRT); type: physicochemical; details: API (drug substance used)
Description: As used herein, “relative retention time” (“RRT”) is calculated by dividing the retention time of the peak of interest by the retention time of the main peak. Any peak with an RRT<1 elutes before the main peak, and any peak with an RRT>1 elutes after the main peak. […]

Which results are given for CCCCCOc1ccc(-c2cc(-c3ccc(C(=O)N[C@H]4C[C@@H](O)[C@@H](O)NC(=O)[C@@H]5[C@@H](O)[C@@H](C)CN5C(=O)[C@H]([C@H](O)CC(N)=O)NC(=O)[C@H]([C@H](O)[C@@H](O)c5ccc(O)c(OS(=O)(=O)O)c5)NC(=O)[C@@H]5C[C@@H](O)CN5C(=O)[C@H]([C@@H](C)O)NC4=O)cc3)no2)cc1 [Micafungin sodium, {5-[(1S,2S)-2-[(3S,6S,9S,11R,15S,18S,20R,21R,24S,25S,26S)-3-[(1R)-2-carbamoyl-1-hydroxyethyl]-11,20,21,25-tetrahydroxy-15-[(1R)-1-hydroxyethyl]-26-methyl-2,5,8,14,17,23-hexaoxo-18-[(4-{5-[4-(pentyloxy)phenyl]-1,2-oxazol-3-yl)benzene)amido]-1,4,7,13,16,22-hexaazatricyclo[22.3.0.0.0^9,13]heptacosan-6-yl]-1,2-dihydroxyethyl]-2-hydroxyphenyl} oxidanesulfonic acid] (X1-[Orn(4R-OH,5R-OH)]T[Hyp][hTyr(3S-OH,4S-OH,3'-OSO3H)][Gln(3R-OH)][Pro(3S-OH,4S-Me)]; lactam 1-C)?
Solubility ([1]; N,N-dimethylformamide): freely soluble; Solubility ([1]; acetone): practically insoluble; Solubility ([1]; acetonitrile): practically insoluble; Solubility ([1]; diethyl ether): practically insoluble; Solubility ([1]; dimethylsulfoxide): freely soluble; Solubility ([1]; ethyl alcohol (95%)): practically insoluble; Solubility ([1]; isotonic sodium chloride solution): freely soluble; Solubility ([1]; methyl alcohol): slightly soluble; Solubility ([1]; n-hexane): practically insoluble; Solubility ([1]; water): freely soluble; Imp at RRT 1.02 [2]: 0.24; Imp at RRT 0.93 ([2]; listed as API): 0.64 and 0.58; Imp. E ([2]; listed as API): 0.01 and 0.02; Purity ([2]; listed as API): 99.25 and 98.97
